# Measured values from patent US20230143612A1 (Arbutus Biopharma Corporation, priority 2020, published 2023).
# Molecular target: PD-L1 His protein / PD-1 Fc protein (Homo sapiens, UniProt Q9NZQ7)
# Assay: HTRF Assay (PD-1/PD-L1 interaction)
# Type: binding
# Settings: PD-L1 His 6 nM, PD-1 Fc 6 nM
# In short: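 HTRF: PD-L1 His (6 nM final), compound (3-fold dilutions, 20 μM to 0.001 μM final) and PD-1 Fc (6 nM final) preincubated 15 min at room temperature. Anti-human IgG-XL665 and anti-6HIS Tb cryptate (mixed at 6.7 nM and 0.35 nM) then added for 1 h at room temperature before reading.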
# PD-L1 His protein / PD-1 Fc protein, sequence (Q9NZQ7 19-238 limits assumed): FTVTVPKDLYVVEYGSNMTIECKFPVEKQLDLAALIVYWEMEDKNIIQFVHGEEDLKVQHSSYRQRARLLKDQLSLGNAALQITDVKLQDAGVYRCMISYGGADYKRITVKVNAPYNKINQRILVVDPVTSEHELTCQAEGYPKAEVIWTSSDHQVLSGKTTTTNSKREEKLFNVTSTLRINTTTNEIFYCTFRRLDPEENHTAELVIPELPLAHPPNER
row,Compound,IC50
1,"CNC(=O)CCNCc1cnc2cc(-c3cccc(-c4cccc(-c5ccc(CNC[C@@H]6CCC(=O)N6)c(OC)n5)c4Cl)c3Cl)ccn2c1=O [Example 210, (S)-3-(((8-(2,2′-dichloro-3′-(6-methoxy-5-((((5-oxopyrrolidin-2-yl)methyl)amino)methyl)pyridin-2-yl)-[1,1′-biphenyl]-3-yl)-4-oxo-4H-pyrido[1,2-a]pyrimidin-3-yl)methyl)amino)-N-methylpropanamide]",0.1 nM
2,COc1nc(-c2cccc(-c3cccc(-c4cc(C)n5c(=O)c(CN[C@H]6C[C@](C)(O)C6)cnc5c4)c3Cl)c2Cl)ccc1CNC[C@@H]1CCC(=O)N1 [Example 211],21 nM
3,"COc1nc(-c2cccc(-c3cccc(-c4ccc5nc(CNC[C@@H]6CCC(=O)N6)cc(=O)n5c4)c3Cl)c2Cl)ccc1CNC[C@@H]1CCC(=O)N1 [Example 212, 7-(2,2′-Dichloro-3′-(6-methoxy-5-(((((S)-5-oxopyrrolidin-2-yl)methyl)amino)methyl)pyridin-2-yl)-[1,1′-biphenyl]-3-yl)-2-(((((S)-5-oxopyrrolidin-2-yl)methyl)amino)methyl)-4H-pyrido[1,2-a]pyrimidin-4-one]",0.1 nM
4,"COc1nc(-c2cccc(-c3cccc(-c4ccn5c(=O)c(CNCC[C@@H]6CCC(=O)N6)cnc5c4)c3Cl)c2Cl)ccc1CNC[C@@H]1CCC(=O)N1 [Example 214, 8-[2-chloro-3-[2-chloro-3-[6-methoxy-5-[[[(2S)-5-oxopyrrolidin-2-yl]methylamino]methyl]-2-pyridyl]phenyl]phenyl]-3-[[2-[(2S)-5-oxopyrrolidin-2-yl]ethylamino]methyl]pyrido[1,2-a]pyrimidin-4-one]",0.5 nM
5,"COc1nc(-c2cccc(-c3cccc(-c4ccn5c(=O)c(CNCCc6c[nH]cn6)cnc5c4)c3Cl)c2Cl)ccc1CNC[C@@H]1CCC(=O)N1 [Example 215, 8-[2-chloro-3-[2-chloro-3-[6-methoxy-5-[[[(2S)-5-oxopyrrolidin-2-yl]methylamino]methyl]-2-pyridyl]phenyl]phenyl]-3-[[2-(1H-imidazol-4-yl)ethylamino]methyl]pyrido[1,2-a]pyrimidin-4-one]",8 nM
6,"COc1nc(-c2cccc(-c3cccc(-c4ccn5c(=O)c(CNCCn6cnnc6)cnc5c4)c3Cl)c2Cl)ccc1CNC[C@@H]1CCC(=O)N1 [Example 216, 8-[2-Chloro-3-[2-chloro-3-[6-methoxy-5-[[[(2S)-5-oxopyrrolidin-2-yl]methylamino]methyl]-2-pyridyl]phenyl]phenyl]-3-[[2-(1,2,4-triazol-4-yl)ethylamino]methyl]pyrido[1,2-a]pyrimidin-4-one]",0.1 nM
7,"COc1nc(-c2cccc(-c3cccc(-c4cnc5c(N)c(CO)sc5c4)c3Cl)c2Cl)ccc1CNC[C@@H]1CCC(=O)N1 [Example 217, (S)-5-((((6-(3′-(3-Amino-2-(hydroxymethyl)-thieno[3,2-b]-pyridin-6-yl)-2,2′-dichloro-[1,1′-biphenyl]-3-yl)-2-methoxypyridin-3-yl)methyl)amino)methyl)pyrrolidin-2-one]",3.5 nM
8,"COc1nc(-c2cccc(-c3cccc(-c4ccc5c(n4)OCCNC5)c3Cl)c2Cl)ccc1CNC[C@@H]1CCC(=O)N1 [Example 218, (S)-5-((((6-(2,2′-Dichloro-3′-(2,3,4,5-tetrahydropyrido[3,2-f][1,4]oxazepin-8-yl)-[1,1′-biphenyl]-3-yl)-2-methoxypyridin-3-yl)methyl)amino)methyl)887yrrolidine-2-one]",0.6 nM
9,"COc1nc(-c2cccc(-c3cccc(-c4ccn5c(=O)c(CNCCN6CCCC6=O)cnc5c4)c3Cl)c2Cl)ccc1CNC[C@@H]1CCC(=O)N1 [Example 219, 8-[2-Chloro-3-[2-chloro-3-[6-methoxy-5-[[[(2S)-5-oxopyrrolidin-2-yl]methylamino]methyl]-2-pyridyl]phenyl]phenyl]-3-[[2-(2-oxopyrrolidin-1-yl)ethylamino]methyl]pyrido[1,2-a]pyrimidin-4-one]",0.7 nM
10,"COC(=O)C[C@H](O)CNCc1cnc2cc(-c3cccc(-c4cccc(-c5ccc(CNC[C@@H]6CCC(=O)N6)c(OC)n5)c4Cl)c3Cl)ccn2c1=O [Example 220, Methyl (3S)-4-[[8-[2-chloro-3-[2-chloro-3-[6-methoxy-5-[[[(2S)-5-oxopyrrolidin-2-yl]methylamino]methyl]-2-pyridyl]phenyl]phenyl]-4-oxo-pyrido[1,2-a]pyrimidin-3-yl]methylamino]-3-hydroxy-butanoate]",0.1 nM
11,"COc1nc(-c2cccc(-c3cccc(-c4ccc5nc(CN[C@H]6C[C@H](O)C6)cc(=O)n5c4)c3Cl)c2Cl)ccc1CNC[C@@H]1CCC(=O)N1 [Example 221, 7-(2,2′-dichloro-3′-(6-methoxy-5-(((((S)-5-oxopyrrolidin-2-yl)methyl)amino)methyl)pyridin-2-yl)-[1,1′-biphenyl]-3-yl)-2-((((1r,3r)-3-hydroxycyclobutyl)amino)methyl)-4H-pyrido[1,2-a]pyrimidin-4-one]",0.6 nM
12,"COc1nc(-c2cccc(-c3cccc(-c4ccc5nc(CN6CC(C)(O)C6)cc(=O)n5c4)c3Cl)c2Cl)ccc1CNC[C@@H]1CCC(=O)N1 [Example 222, (S)-7-(2,2′-dichloro-3′-(6-methoxy-5-((((5-oxopyrrolidin-2-yl)methyl)amino)methyl)pyridin-2-yl)-[1,1′-biphenyl]-3-yl)-2-((3-hydroxy-3-methylazetidin-1-yl)methyl)-4H-pyrido[1,2-a]pyrimidin-4-one]",0.2 nM
13,"COc1nc(-c2cccc(-c3cccc(-c4ccn5c(=O)c(CNCCCC(F)(F)C(F)(F)F)cnc5c4)c3Cl)c2Cl)ccc1CNC[C@@H]1CCC(=O)N1 [Example 223, (S)-8-(2,2′-dichloro-3′-(6-methoxy-5-((((5-oxopyrrolidin-2-yl)-methyl)-amino)methyl)-pyridin-2-yl)-[1,1′-biphenyl]-3-yl)-3-(((4,4,5,5,5-pentafluoropentyl)amino)-methyl)-4H-pyrido[1,2-a]pyrimidin-4-one]",10 nM
14,"COc1nc(-c2cccc(-c3cccc(-c4ccn5c(=O)c(CNC6CCS(=O)(=O)CC6)cnc5c4)c3Cl)c2Cl)ccc1CNC[C@@H]1CCC(=O)N1 [Example 224, (S)-8-(2,2′-dichloro-3′-(6-methoxy-5-((((5-oxopyrrolidin-2-yl)-methyl)amino)-methyl)-pyridin-2-yl)-[1,1′-biphenyl]-3-yl)-3-(((1,1-dioxidotetrahydro-2H-thiopyran-4-yl)-amino)methyl)-4H-pyrido[1,2-a]-pyrimidin-4-one]",2.8 nM
15,"COc1nc(-c2cccc(-c3cccc(-c4cc(C)n5c(=O)c(CNC[C@H](C)O)cnc5c4)c3Cl)c2Cl)ccc1CNC[C@@H]1CCC(=O)N1 [Example 226, 8-(2,2′-Dichloro-3′-(6-methoxy-5-(((((S)-5-oxopyrrolidin-2-yl)methyl)amino)methyl)pyridin-2-yl)-[1,1′-biphenyl]-3-yl)-3-((((S)-2-hydroxypropyl)amino)methyl)-6-methyl-4H-pyrido[1,2-a]pyrimidin-4-one]",15 nM
16,"COc1nc(-c2cccc(-c3cccc(-c4ccn5c(=O)c(CNC[C@@H]6CCC(=O)N6)c(Cl)nc5c4)c3Cl)c2Cl)ccc1CNC[C@@H]1CCC(=O)N1 [Example 227, 2-Chloro-8-(2,2′-dichloro-3′-(6-methoxy-5-(((((S)-5-oxopyrrolidin-2-yl)methyl)amino)methyl)pyridin-2-yl)-[1,1′-biphenyl]-3-yl)-3-(((((S)-5-oxopyrrolidin-2-yl)methyl)amino)methyl)-4H-pyrido[1,2-a]pyrimidin-4-one]",12 nM
17,"COc1cc2c(cc1CNC[C@@H]1CCC(=O)N1)CCC2=Cc1cccc(-c2cccc(-c3ccc(CNC[C@@H]4CCC(=O)N4)c(OC)n3)c2Cl)c1Cl [Example 228, (S)-5-((((6-(2,2′-Dichloro-3′-((6-methoxy-5-(((((S)-5-oxopyrrolidin-2-yl)methyl)amino)methyl)-2,3-dihydro-1H-inden-1-ylidene)methyl)-[1,1′-biphenyl]-3-yl)-2-methoxypyridin-3-yl)methyl)amino)methyl)pyrrolidin-2-one]",3200 nM
18,"COc1nc(-c2cccc(-c3cccc(-c4ccn5c(=O)c(CN[C@H]6C[C@@](C)(O)C6)c(C)nc5c4)c3Cl)c2Cl)ccc1CNC[C@@H]1CCC(=O)N1 [Example 229, 8-(2,2′-Dichloro-3′-(6-methoxy-5-(((((S)-5-oxopyrrolidin-2-yl)methyl)amino)methyl)pyridin-2-yl)-[1,1′-biphenyl]-3-yl)-3-((((1s,3s)-3-hydroxy-3-methylcyclobutyl)amino)methyl)-2-methyl-4H-pyrido[1,2-a]pyrimidin-4-one]",6.9 nM
19,"COc1nc(-c2cccc(-c3cccc(-c4ccn5c(=O)c(CN[C@H]6C[C@@](C)(O)C6)c(C)nc5c4)c3Cl)c2Cl)ccc1CN[C@H]1C[C@@](C)(O)C1 [Example 230, 8-(2,2′-Dichloro-3′-(5-((((1s,3s)-3-hydroxy-3-methylcyclobutyl)amino)methyl)-6-methoxypyridin-2-yl)-[1,1′-biphenyl]-3-yl)-3-((((1s,3s)-3-hydroxy-3-methylcyclobutyl)amino)methyl)-2-methyl-4H-pyrido[1,2-a]pyrimidin-4-one]",98 nM
20,"COC(=O)C[C@H](O)CNCc1ccc(-c2cccc(-c3cccc(-c4ccn5c(=O)c(CNC[C@@H](O)CC(=O)OC)cnc5c4)c3Cl)c2Cl)nc1OC [Example 231, Methyl (3S)-4-[[6-[2-chloro-3-[2-chloro-3-[3-[[[(2S)-2-hydroxy-4-methoxy-4-oxo-butyl]amino]methyl]-4-oxo-pyrido[1,2-a]pyrimidin-8-yl]phenyl]phenyl]-2-methoxy-3-pyridyl]methylamino]-3-hydroxy-butanoate]",120 nM
21,"COc1nc(-c2cccc(-c3cccc(-c4cc(F)c(CNC[C@@H]5CCC(=O)N5)c(OC)n4)c3Cl)c2Cl)ccc1CNC[C@@H]1CCC(=O)N1 [Example 232, (S)-5-((((6-(2,2′-dichloro-3′-(4-fluoro-6-methoxy-5-(((((S)-5-oxopyrrolidin-2-yl)methyl)amino)methyl)pyridin-2-yl)-[1,1′-biphenyl]-3-yl)-2-methoxypyridin-3-yl)methyl)amino)methyl)pyrrolidin-2-one]",63 nM
